What follows are molecules tested against hGPR40 (Homo sapiens, UniProt O14842) (assay: FDSS-based intracellular calcium assay). Conditions: intracellular Ca2+ response, cells expressing GPR40.
Assay type: cell-based
Set-up: 3xFLAG; expressed in transfected cells
Experimental: FDSS-Based Intracellular Calcium Assay
Compounds are dissolved in DMSO and diluted to desired concentrations with assay buffer and added to the cells as 3× solution (20 μL per well). Run fluorescence/luminescence reader FDSS (Hamamatsu) to read intracellular Ca^2+ response.

hGPR40, sequence (O14842 whole entry): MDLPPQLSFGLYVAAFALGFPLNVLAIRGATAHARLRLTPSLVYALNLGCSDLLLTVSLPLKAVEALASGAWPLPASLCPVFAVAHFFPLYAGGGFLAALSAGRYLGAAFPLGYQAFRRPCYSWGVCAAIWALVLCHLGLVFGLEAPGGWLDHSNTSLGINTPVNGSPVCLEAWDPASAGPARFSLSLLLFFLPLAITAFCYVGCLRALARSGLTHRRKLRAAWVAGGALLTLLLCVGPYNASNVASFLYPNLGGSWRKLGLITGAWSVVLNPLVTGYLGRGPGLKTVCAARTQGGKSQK

EC50	SMILES
190 nM	C[C@@H]1C(C(F)(F)F)=NN(c2ccc(OC3CCN(c4cc(O)ccc4F)CC3)cc2)[C@H]1CC(=O)O [Example 102, 2-((4S,5S)-1-(4-((1-(2-Fluoro-5-hydroxyphenyl)piperidin-4-yl)oxy)phenyl)-4-methyl-3-(trifluoromethyl)-4,5-dihydro-1H-pyrazol-5-yl)acetic acid]
1200 nM	CCOc1ccc(F)c(N2CC[C@H](Oc3ccc(N4N=C(C(F)(F)F)[C@@H](C)[C@@H]4CC(=O)O)cc3)[C@@H](C)C2)c1 [Example 30, 2-((4S,5S)-1-(4-(((3S,4S)-1-(5-Ethoxy-2-fluorophenyl)-3-methylpiperidin-4-yl)oxy)phenyl)-4-methyl-3-(trifluoromethyl)-4,5-dihydro-1H-pyrazol-5-yl)acetic acid]
448 nM	C[C@@H]1C(C(F)(F)F)=NN(c2ccc(OC3CCN(c4ccccc4Cl)CC3)cc2)[C@H]1CC(=O)O [Example 37, 2-((4S,5S)-1-(4-((1-(2-Chlorophenyl)piperidin-4-yl)oxy)phenyl)-4-methyl-3-(trifluoromethyl)-4,5-dihydro-1H-pyrazol-5-yl)acetic acid]
2560 nM	COc1cc(F)cc(N2CCC(Oc3ccc(N4N=C(C(F)(F)F)[C@@H](C)[C@@H]4CC(=O)O)cc3)CC2)n1 [Example 80, 2-((4S,5S)-1-(4-((1-(4-Fluoro-6-methoxypyridin-2-yl)piperidin-4-yl)oxy)phenyl)-4-methyl-3-(trifluoromethyl)-4,5-dihydro-1H-pyrazol-5-yl)acetic acid]
475 nM	C[C@@H]1C(C(F)(F)F)=NN(c2ccc(OC3CCN(c4cc(F)ccc4F)CC3)cc2)[C@H]1CC(=O)O [Example 38, 2-((4S,5S)-1-(4-((1-(2,5-Difluorophenyl)piperidin-4-yl)oxy)phenyl)-4-methyl-3-(trifluoromethyl)-4,5-dihydro-1H-pyrazol-5-yl)acetic acid]
7960 nM	COc1ccc(F)c(N2CCC(Oc3ccc(N4N=C(C(F)(F)F)[C@@H](CC(C)C)[C@@H]4CC(=O)O)cc3)CC2)c1 (single isomer, unassigned) [Example 89, Isomer 1]
361 nM	C[C@@H]1C(C(F)(F)F)=NN(c2ccc(OC3CCN(c4cc(F)ccc4Cl)CC3)cc2)[C@H]1CC(=O)O [Example 59, 2-((4S,5S)-1-(4-((1-(2-Chloro-5-fluorophenyl)piperidin-4-yl)oxy)phenyl)-4-methyl-3-(trifluoromethyl)-4,5-dihydro-1H-pyrazol-5-yl)acetic acid]
5900 nM	COc1cccc(F)c1N1CCC(Oc2ccc(N3N=C(C(F)(F)F)[C@@H](C)[C@@H]3CC(=O)O)cc2)CC1 [Example 54, 2-((4S,5S)-1-(4-((1-(2-Fluoro-6-methoxyphenyl)piperidin-4-yl)oxy)phenyl)-4-methyl-3-(trifluoromethyl)-4,5-dihydro-1H-pyrazol-5-yl)acetic acid]
161 nM	COc1ccc(C)c(N2CCC(Oc3ccc(N4N=C(C(F)(F)F)[C@@H](C)[C@@H]4CC(=O)O)cc3)CC2)c1 [Example A2, 2-((4S,5S)-1-(4-(1-(5-Methoxy-2-methylphenyl)piperidin-4-yloxy)phenyl)-4-methyl-3-(trifluoromethyl)-4,5-dihydro-1H-pyrazol-5-yl)acetic acid]
156 nM	COc1ccc(F)c(N2CCC(Oc3ccc(N4N=C(C(F)(F)F)[C@@H](CC5CC5)[C@@H]4CC(=O)O)cc3)CC2)c1 (single isomer, unassigned) [Example 90, Isomer 2]
3620 nM	COc1ccc(N2CCC(Oc3ccc(N4N=C(C(F)(F)F)[C@@H](C)[C@@H]4CC(=O)O)cc3)CC2)cc1F [Example 52, 2-((4S,5S)-1-(4-((1-(3-Fluoro-4-methoxyphenyl)piperidin-4-yl)oxy)phenyl)-4-methyl-3-(trifluoromethyl)-4,5-dihydro-1H-pyrazol-5-yl)acetic acid]
1990 nM	COc1cc(Cl)cc(N2CCC(Oc3ccc(N4N=C(C(F)(F)F)[C@@H](C)[C@@H]4CC(=O)O)cc3)CC2)n1 [Example 78, 2-((4S,5S)-1-(4-((1-(4-Chloro-6-methoxypyridin-2-yl)piperidin-4-yl)oxy)phenyl)-4-methyl-3-(trifluoromethyl)-4,5-dihydro-1H-pyrazol-5-yl)acetic acid]
796 nM	Cc1cccc(F)c1N1CCC(Oc2ccc(N3N=C(C(F)(F)F)[C@@H](C)[C@@H]3CC(=O)O)cc2)CC1 [Example 42, 2-((4S,5S)-1-(4-((1-(2-Fluoro-6-methylphenyl)piperidin-4-yl)oxy)phenyl)-4-methyl-3-(trifluoromethyl)-4,5-dihydro-1H-pyrazol-5-yl)acetic acid]
680 nM	COc1ccc(C#N)c(N2CCC(Oc3ccc(N4N=C(C(F)(F)F)[C@@H](C)[C@@H]4CC(=O)O)cc3)CC2)c1 [Example 21, 2-((4S,5S)-1-(4-((1-(2-Cyano-5-methoxyphenyl)piperidin-4-yl)oxy)phenyl)-4-methyl-3-(trifluoromethyl)-4,5-dihydro-1H-pyrazol-5-yl)acetic acid]
1910 nM	COc1cc(N2CCC(Oc3ccc(N4N=C(C(F)(F)F)[C@@H](C)[C@@H]4CC(=O)O)cc3)CC2)ccn1 [Example 47, 2-((4S,5S)-1-(4-((1-(2-Methoxypyridin-4-yl)piperidin-4-yl)oxy)phenyl)-4-methyl-3-(trifluoromethyl)-4,5-dihydro-1H-pyrazol-5-yl)acetic acid]

Second part, the molecule before the results:

SMILES	EC50
C[C@@H]1C(C(F)(F)F)=NN(c2ccc(OC3CCN(c4ccc(Cl)cc4)CC3)cc2)[C@H]1CC(=O)O [Example 56, 2-((4S,5S)-1-(4-((1-(4-Chlorophenyl)piperidin-4-yl)oxy)phenyl)-4-methyl-3-(trifluoromethyl)-4,5-dihydro-1H-pyrazol-5-yl)acetic acid]	6270 nM
COc1cc(N2CC[C@H](Oc3ccc(N4N=C(C(F)(F)F)[C@@H](C)[C@@H]4CC(=O)O)cc3)[C@@H](C)C2)c(Cl)cn1 [Example 81, Isomer 1, 2-((4S,5S)-1-(4-((1-(5-Chloro-2-methoxypyridin-4-yl)-3-methylpiperidin-4-yl)oxy)phenyl)-4-methyl-3-(trifluoromethyl)-4,5-dihydro-1H-pyrazol-5-yl)acetic acid]	319 nM
C[C@@H]1C(C(F)(F)F)=NN(c2ccc(OC3CCN(c4cc(Cl)ccc4Cl)CC3)cc2)[C@H]1CC(=O)O [Example 35, 2-((4S,5S)-1-(4-((1-(2,5-Dichlorophenyl)piperidin-4-yl)oxy)phenyl)-4-methyl-3-(trifluoromethyl)-4,5-dihydro-1H-pyrazol-5-yl)acetic acid]	254 nM
CCOc1cc(N2CC[C@H](Oc3ccc(N4N=C(C(F)(F)F)[C@@H](C)[C@@H]4CC(=O)O)cc3)[C@@H](C)C2)c(Cl)cn1 [Example 82, 2-((4S,5S)-1-(4-(((3S,4S)-1-(5-Chloro-2-ethoxypyridin-4-yl)-3-methylpiperidin-4-yl)oxy)phenyl)-4-methyl-3-(trifluoromethyl)-4,5-dihydro-1H-pyrazol-5-yl)acetic acid]	760 nM
CCOc1cc(N2CC[C@@H](Oc3ccc(N4N=C(C(F)(F)F)[C@@H](C)[C@@H]4CC(=O)O)cc3)[C@H](C)C2)c(Cl)cn1 [Example 83, 2-((4S,5S)-1-(4-(((3R,4R)-1-(5-Chloro-2-ethoxypyridin-4-yl)-3-methylpiperidin-4-yl)oxy)phenyl)-4-methyl-3-(trifluoromethyl)-4,5-dihydro-1H-pyrazol-5-yl)acetic acid]	224 nM
COc1ccc(F)c(N2CCC(Oc3ccc(N4N=C(c5ccc(C#N)cc5)[C@@H](C)[C@@H]4CC(=O)O)cc3)CC2)c1 [Example 91, 2-((4S,5S)-3-(4-Cyanophenyl)-1-(4-((1-(2-fluoro-5-methoxyphenyl)piperidin-4-yl)oxy)phenyl)-4-methyl-4,5-dihydro-1H-pyrazol-5-yl)acetic acid]	62 nM
C[C@@H]1C(C(F)(F)F)=NN(c2ccc(OC3CCN(c4ccccn4)CC3)cc2)[C@H]1CC(=O)O [Example 74, 2-((4S,5S)-4-Methyl-1-(4-((1-(pyridin-2-yl)piperidin-4-yl)oxy)phenyl)-3-(trifluoromethyl)-4,5-dihydro-1H-pyrazol-5-yl)acetic acid]	2610 nM
CCOc1cc(F)c(F)c(N2CCC(Oc3ccc(N4N=C(C(F)(F)F)[C@@H](C)[C@@H]4CC(=O)O)cc3)C(C)C2)c1 (single isomer, unassigned) [Example 10 (Isomer 1)]	1200 nM
COC(=O)c1ccc(C2=NN(c3ccc(OC4CCN(c5cc(OC)ccc5F)CC4)cc3)[C@@H](CC(=O)O)[C@@H]2C)cc1 [Example 92, 2-((4S,5S)-1-(4-((1-(2-Fluoro-5-methoxyphenyl)piperidin-4-yl)oxy)phenyl)-3-(4-(methoxycarbonyl)phenyl)-4-methyl-4,5-dihydro-1H-pyrazol-5-yl)acetic acid]	139 nM
CC[C@@H]1C(C(F)(F)F)=NN(c2ccc(OC3CCN(c4cc(OC)ccc4F)CC3)cc2)[C@H]1CC(=O)O (single isomer, unassigned) [Example 88, Isomer 2]	7450 nM
COc1cc(N2CC[C@@H](Oc3ccc(N4N=C(C(F)(F)F)[C@@H](C)[C@@H]4CC(=O)O)c(Br)c3)[C@H](C)C2)c(Cl)cn1 [Example A3, 2-((4S,5S)-1-(2-Bromo-4-(((3R,4R)-1-(5-chloro-2-methoxypyridin-4-yl)-3-methylpiperidin-4-yl)oxy)phenyl)-4-methyl-3-(trifluoromethyl)-4,5-dihydro-1H-pyrazol-5-yl)acetic acid]	844 nM
COc1cc(F)c(F)c(N2CCC(Oc3ccc(N4N=C(C(F)(F)F)[C@@H](C)[C@@H]4CC(=O)O)cc3)C(C)C2)c1 (single isomer, unassigned) [Example 8 (Isomer 1)]	796 nM
CC(C)COc1cc(F)c(F)c(N2CCC(Oc3ccc(N4N=C(C(F)(F)F)[C@@H](C)[C@@H]4CC(=O)O)cc3)CC2)c1 [Example 18, 2-((4S,5S)-1-(4-((1-(2,3-Difluoro-5-isobutoxyphenyl)piperidin-4-yl)oxy)phenyl)-4-methyl-3-(trifluoromethyl)-4,5-dihydro-1H-pyrazol-5-yl)acetic acid]	4760 nM
COc1cc(N2CCC(Oc3ccc(N4N=C(C(F)(F)F)[C@@H](C)[C@@H]4CC(=O)O)cc3)C(F)C2)c(Cl)cn1 (single isomer, unassigned) [Example A1, Isomer 1]	184 nM

Source: patent US9133163B2, “Dihydropyrazole GPR40 modulators” (Bristol-Myers Squibb Company, priority 2012, dated 2015)
